Assay results as given in patent publication US10501428B2, “Thymoquinone derivatives for treatment of cancer” (United Arab Emirates University, priority 2014, dated 2019).
Where two headings read alike, the source gives them in different places.

Experiments:
G-quadruplex DNA [1] = assay: Melting temperature curves of G-quadruplex and TQ complexes by CD; assay type: binding, human; conditions: for Tm: equimolar G-quadruplex and TQ 3.93×10^−6 M, Tris-KCl buffer pH 7.4, CD at 293 nm; for Δ Tm: versus G-quadruplex DNA alone (70.0 ° C.)
Method: (§1) A 2 ml of the stock single stranded DNA; 5′-[…]-3′ (SEQ ID NO: 1) was gently heated up to 95° C., incubated for 10 minutes and then left to cool to room temperature. Resultant solution was kept in fridge at 4° C. overnight.
Melting temperature curves for G-quadruplex and their TQs adducts were constructed using CD spectral measurements.
A 1 ml telomeric G-quadruplex (3.93×10^−6 M) in Tris-KCl-buffer pH7.4, was heated in 1-5° C. increments in the range 25-95° C. using 5 minutes incubation time intervals. CD spectra were recorded in the range 200-400 nm using 50 nm/min, 1 nm band width and 3 accumulations at each point. CD spectra were baseline corrected against blank solution and CD intensities at 293 nm were plotted versus temperature.
Similarly G-quadruplex-TQ1-8 1 mL complex solutions that were 3.93×10^−6 M of G-quadruplex and 3.93×10−6 M of TQs were heated up to 95° C. and measured. The solutions were prepared by mixing equi-molar amounts of G-quadruplex (27.3 μL, 1.44×10^−4 M) with TQ compounds 1-8 (39.30 μL, 1×10^−4 M) in 1 mL KCl-buffer, pH 7.4. CD spectra were baseline corrected and CD intensities at 293 nm were plotted versus temperature.

[2] = system: Human lung cancer cells A549; assay: CellTiter-Glo cell viability assay, A549 lung cancer cells; assay type: cell-based; conditions: for cytotoxicity at 100 µM / IC50: Homo sapiens; for cytotoxicity at 100 µM: A549, 100 μM, relative to control (DMSO), read-out: decrease in cell viability; for IC50: A549, 24 hours
Method: (§2) Human lung cancer cells A549, human breast cancer cells MDA-MB-231 and colorectal cancer cells HT29, were used to test the antiproliferative activity of the synthesised compounds. Human lung cancer cells A549 were maintained in RPMI 1640 medium (Hyclone Laboratories, USA), human breast cancer cells MDA-MB-231 and colorectal cancer cells HT29 were maintained in DMEM medium (Hyclone Laboratories, USA). All media was supplemented with antibiotics (penicillin 50 U/ml; streptomycin 50 ug/ml) (Hyclone Laboratories, USA).
(§3) Cells were seeded at a density of 5,000 cells/well into 96-well plates. After 24 h, cells were treated for 24 and 48 h with different concentrations of compounds TQ1-5 and 8 (5-100 μM), in triplicate. Control cultures were treated with 0.1% DMSO. The effect of the compounds TQ1-8 on cell viability was determined using the CellTiter-Glo Luminescent Cell Viability assay (Promega Corporation, Madison, USA), based on quantification of ATP, which signals the presence of metabolically active cells. The luminescent signal was measured using the GLOMAX Luminometer system. Data were presented as proportional viability (%) by comparing the treated group with the untreated cells, the viability of which is assumed to be 100%.

G-quadruplex DNA [3] = assay: Fluorescence titration of TQs with G-quadruplex DNA (modified Scatchard); assay type: binding, human; conditions: non-linear regression, modified Scatchard equation
Method: as §1
To 3 ml of 5×10^−5 M of each of compounds TQ1-8 in Tris-KCl-buffer, pH 7.4, successive portions of G-quadruplex DNA (1.44×10^−4 M) were added. After each addition, the TQ solution was stirred for 20 seconds, incubated for 3 min and its emission was scanned in the range 300-600 nm using excitation Amax of 280 nm and slit width of 10.00 nm. Titration stopped when no change in fluorescence intensity was observed.
Scatchard plots were used to determine the binding affinity of the thymoquinone derivative compounds to G-quadruplex based on fluorescence titration, keeping the compounds concentration constant and varying DNA amounts.
Dependant binding sites may have synergistic (the first bound ligand encourage the next binding one) or antagonistic (the first bound ligand suppress the next binding one) effects on each other, a phenomenon known as the neighbor exclusion effect. Non-linear regression based on a modified Scatchard equation gave the binding constants and number of binding sites shown in Table 3. Compound TQ8 has shown the highest binding constant (1.33×10^7 M^−1) and compound TQ5 has shown the lowest binding constant (7.76×10^4 M^−1)

[4] = system: colorectal cancer cells HT29; assay: CellTiter-Glo cell viability assay, HT29 colorectal cancer cells; assay type: cell-based; conditions: Homo sapiens, HT-29; for cytotoxicity at 100 µM: HT29, 100 μM, read-out: loss in cell viability
Method: as §2, §3

[5] = system: human breast cancer cells MDA-MB-231; assay: CellTiter-Glo cell viability assay, MDA-MB-231 breast cancer cells; assay type: cell-based; conditions: for cytotoxicity at 100 µM: MDA-MB-231, 100 μM, read-out: loss in cell viability
Method: as §2, §3

[6] = system: Human lung cancer cells A549; conditions: value has been reported, read-out: IC50 A549 (parent TQ, reported); cited from earlier work

| SMILES | IC50 [2] | melting point | binding constant K (G-quadruplex DNA [3]) | IC50 ([4]; HT29, 24 hours) | IC50 ([5]; MDA-MB-231, 24 hours) | Tm (G-quadruplex DNA [1]) | Δ Tm (G-quadruplex DNA [1]) | cytotoxicity at 100 µM ([2]; 24 hours) | cytotoxicity at 100 µM ([2]; 48 hours exposure) | potency compared to the parent TQ molecule ([2]; A549 IC50 comparison) | cytotoxicity at 100 µM ([4]; 24 hours exposure) | cytotoxicity at 100 µM ([4]; 48 hours exposure) | cytotoxicity at 100 µM ([5]; 24 hours exposure) | cytotoxicity at 100 µM ([5]; 48 hours exposure) | IC50 [6] |
| --- | --- | --- | --- | --- | --- | --- | --- | --- | --- | --- | --- | --- | --- | --- | --- |
| CC1=C(NCc2ccc(C(F)(F)F)cc2)C(=O)C(C(C)C)=CC1=O [TQ2, 5-Isopropyl-2-methyl-3-(4-trifluoromethylbenzylamino)-1,4-benzoquinone] | 84.3 µM | 110.5 to 112 °C | 567000 M⁻¹ |  |  | 76.0 °C | 6.0 °C | 32% | 57% |  |  |  |  |  |  |
| CC1=C(NCc2cc(C(F)(F)F)cc(C(F)(F)F)c2)C(=O)C(C(C)C)=CC1=O [TQ5, 5-Isopropyl-2-methyl-3-(3,5-ditrifluoromethylbenzylamino)-1,4-benzoquinone] | 105 µM | 111 to 114 °C | 77600 M⁻¹ |  |  | 77.0 °C | 7.0 °C | 33% | 48% |  |  |  |  |  |  |
| COc1ccc(CNC2=C(C)C(=O)C=C(C(C)C)C2=O)cc1OC [TQ7, 5-isopropyl-2-methyl-3-(3,4-dimethoxylbenzylamino)-1,4-benzoquinone] |  |  | 1.17e+06 M⁻¹ |  |  | 77.0 °C | 7.7 °C |  |  |  |  |  |  |  |  |
| CC1=CC(=O)C(C(C)C)=CC1=O [TQ, 2-isopropyl-5-methyl-1,1,4-benzoqinone] |  |  |  |  |  |  |  |  |  |  |  |  |  |  | 78.3 µM |

Continued, in another order:

| IC50 [2] | melting point | binding constant K (G-quadruplex DNA [3]) | IC50 ([4]; HT29, 24 hours) | IC50 ([5]; MDA-MB-231, 24 hours) | SMILES | Tm (G-quadruplex DNA [1]) | Δ Tm (G-quadruplex DNA [1]) | cytotoxicity at 100 µM ([2]; 24 hours) | cytotoxicity at 100 µM ([2]; 48 hours exposure) | potency compared to the parent TQ molecule ([2]; A549 IC50 comparison) | cytotoxicity at 100 µM ([4]; 24 hours exposure) | cytotoxicity at 100 µM ([4]; 48 hours exposure) | cytotoxicity at 100 µM ([5]; 24 hours exposure) | cytotoxicity at 100 µM ([5]; 48 hours exposure) | IC50 [6] |
| --- | --- | --- | --- | --- | --- | --- | --- | --- | --- | --- | --- | --- | --- | --- | --- |
| 74.3 µM | 92 to 95 °C | 113000 M⁻¹ |  |  | CC1=C(NCCN2CCOCC2)C(=O)C(C(C)C)=CC1=O [TQ1, 5-Isopropyl-2-methyl-3-((2-morpholinoethyl)amino)-1,4-benzoquinone] | 79.0 °C | 9.0 °C | 15% | 33% |  |  |  |  |  |  |
| 83.2 µM | 80 to 82.5 °C | 330000 M⁻¹ |  |  | CC1=C(NCc2ccc(F)cc2)C(=O)C(C(C)C)=CC1=O [TQ3, 5-Isopropyl-2-methyl-3-(4-fluorobenzylamino)-1,4-benzoquinone] | 76.0 °C | 6.0 °C | 29% | 64% |  |  |  |  |  |  |
| 88.7 µM | 83 to 84.5 °C | 95200 M⁻¹ |  |  | CC1=C(NCc2ccccc2)C(=O)C(C(C)C)=CC1=O [TQ4, 5-Isopropyl-2-methyl-3-(benzylamino)-1,4-benzoquinone] | 76.0 °C | 6.0 °C | 17% | 58% |  |  |  |  |  |  |
|  |  | 1.49e+06 M⁻¹ |  |  | CC1=C(NCCO)C(=O)C(C(C)C)=CC1=O [TQ6, 5-isopropyl-2-methyl-3-(2-hydroxyethylamino)-1,4-benzoquinone] | 80.0 °C | 10.0 °C |  |  |  |  |  |  |  |  |
| 35 µM | 68 to 72 °C |  | 55.8 µM | 45.1 µM | CC1=C(N)C(=O)C(C(C)C)=CC1=O [TQ8, 3-amino-5-isopropyl-2-methyl-1,4-benzoquinone] |  |  | 99% | 100% | ≥ 200% | 97% | 99% | 83% | 98% |  |
